Like-named read-outs stand apart in the source and are kept apart here.
What was measured:
MV4-11 cells = assay: MV4-11 6-Day Cell Growth CTG (CellTiter-Glo) Assay; type: cell-based; settings: Homo sapiens, MV4-11, 144 h, MV4-11 cell growth CellTiter-Glo, 6 days
In short: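 MV4-11 AML cells (RPMI 1640, 10% FBS) seeded at 300 cells/well and exposed for 6 days at 37 °C to a 12-point, 1:3 compound series starting at 50 μM final. Viable cells read by CellTiter-Glo luminescence; percent inhibition versus DMSO-only wells fitted to dose-response curves for IC50.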

[1] = molecular target: wild type MLL1 four-member complex (MLL1-4C) (Homo sapiens, UniProt Q03164); assay: MLL1 LC-MS Assay; type: biochemical
In short: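 Compound pre-incubated 20 min with MLL1-4C and SAM, then H3[1-21]-biotin (H3K4me0) substrate added; final 30 nM enzyme, 2.5 μM SAM, 10 μM peptide in Tris pH 8.0 with MgCl2, DTT, Tween 20, BSA. After 120 min at rt, TFA-quenched SAH quantified by LC-MS/MS with d4-SAH; IC50 from dose-response fit.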

H3K4me3 in MV4-11 cells = assay: MV4-11 H3K4me3 Cellular ELISA Assay; type: cell-based; settings: Homo sapiens, MV4-11, 48 h
In short: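 MV4-11 cells were treated for 48 h with 12-point 1:3 compound dilutions (from 10 mM stock), then histones were acid-extracted with 0.5M HCl and neutralized. H3K4me3 and total H3 were measured by HRP chemiluminescent ELISA, and inhibition versus DMSO after H3 normalization was curve-fitted for IC50.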

[2] = molecular target: wild type MLL1 five-member complex (MLL1-5C) (Homo sapiens, UniProt Q03164); assay: MLL1 Flashplate Assay; type: biochemical; settings: read-out: MLL1 flash plate
Description: MLL1 Flashplate Assay To assess the compound potency in MLL1 Flashplate assay, compounds were serially diluted 3-fold in DMSO to obtain a total of twelve concentrations. Then the test compounds at each concentration (250 nL of each) were transferred by Mosquito into Corning #3675 384-well plate. Solutions (15 μL) of 4.2 nM wild type MLL1 five-member complex (MLL1-5C) in the assay buffer (20 mM Tris-HCl, pH 8.0, 0.01% Tween 20, 1 mM DTT, 0.01% BSA) were added to the wells. A 10 μL solution of 2.5 μM of the peptide substrate H3K4me0 (histone H3[1-21]-Biotin) and 1.25 μM ^3H-SAM in the reaction buffer was then added to initiate each reaction. The final components in the reaction solution include 2.5 nM MLL1-5C, 0.5 μM ^3H-SAM, and 1 μM H3K4me0 with varying concentration of the compounds. A positive control consisted of 2.5 nM MLL1-5C, 0.5 μM ^3H-SAM, and 1 μM substrate in the absence of the test compound, and a negative control consisted of 0.5 μM ^3H-SAM, and 1 μM substrate only. Each reaction was incubated at rt for 90 min, then stopped by addition of 5 μL per of quench solution (0.5 mM SAM in assay buffer). 25 μL of each reaction solution was transferred to FlashPlate streptavidin 384-well microplate (PerkinElmer). After at least 1 h incubation at rt, the wells were washed three times with 0.1% Tween-20 in dH2O using the BioTek plate washer. The plates were then read in MicroBeta (PerkinElmer). The radioactive readouts were then normalized based on the values coming from the positive and negative controls to give percent enzyme activities. The data were then fit to a dose response equation using the program Helios to get the IC50 values of the test compounds.

SMILES	IC50 (MV4-11 cells) [µM]	IC50 ([1]; read-out: LCMS) [µM]	IC50 (H3K4me3 in MV4-11 cells) [µM]	IC50 [2] [µM]	IC50 ([1]; read-out: MLL1 LCMS) [µM]
Nc1ncnc2c1ncn2Cc1c(N2CC[C@](N)(C(=O)Nc3cc(C4CC4)n[nH]3)C2)ccc(F)c1C(F)(F)F [Example 123]	< 2	> 0.1	< 1.9	< 0.06	–
CC(C)(C#N)CNC(=O)[C@@]1(N)CCN(c2ccc(F)c(C(F)(F)F)c2Cn2cnc3c(N)ncnc32)C1 [Example 125]	< 2	< 0.05	< 1.9	< 0.06	–
Nc1ncnc2c1ncn2Cc1c(N2CC[C@](N)(C(=O)N[C@@H]3C[C@H]3CO)C2)ccc(F)c1C(F)(F)F [Example 127]	< 2	< 0.05	< 1.9	< 0.06	–
Nc1ncnc2c1ncn2Cc1c(N2CC[C@](N)(C(=O)N3CCn4nncc4C3)C2)ccc(F)c1C(F)(F)F [Example 128]	> 3	> 0.1	< 1.9	> 0.1	–
C[C@H]1CN(C(=O)[C@@]2(N)CCN(c3ccc(F)c(C(F)(F)F)c3Cn3cnc4c(N)ncnc43)C2)CCO1 [Example 131]	< 2	0.05 to 0.1	< 1.9	< 0.06	–
N#CC1CN(C(=O)[C@@]2(N)CCN(c3ccc(F)c(C(F)(F)F)c3Cn3cnc4c(N)ncnc43)C2)C1 [Example 132]	< 2	0.05 to 0.1	< 1.9	< 0.06	–
Nc1nccc(CNC(=O)[C@@]2(N)CCN(c3ccc(F)c(C(F)(F)F)c3Cn3cnc4c(N)ncnc43)C2)n1 [Example 133]	< 2	0.05 to 0.1	< 1.9	0.06 to 0.1	–
Nc1ncnc2c1ncn2Cc1c(N2CC[C@](N)(C(=O)N3CCc4nocc4C3)C2)ccc(F)c1C(F)(F)F [Example 134]	< 2	> 0.1	< 1.9	< 0.06	–
C[C@@H]1CN(C(=O)[C@@]2(N)CCN(c3ccc(F)c(C(F)(F)F)c3Cn3cnc4c(N)ncnc43)C2)CCO1 [Example 135]	< 2	0.05 to 0.1	< 1.9	< 0.06	–
N#CCN1CCN(C(=O)[C@@]2(N)CCN(c3ccc(F)c(C(F)(F)F)c3Cn3cnc4c(N)ncnc43)C2)CC1 [Example 136]	< 2	0.05 to 0.1	< 1.9	< 0.06	–
Nc1ncnc2c1ncn2Cc1c(N2CC[C@](N)(C(=O)N3CCC[C@@H](O)C3)C2)ccc(F)c1C(F)(F)F [Example 138]	< 2	0.05 to 0.1	< 1.9	< 0.06	–
CCn1ncnc1CNC(=O)[C@@]1(N)CCN(c2ccc(F)c(C(F)(F)F)c2Cn2cnc3c(N)ncnc32)C1 [Example 140]	< 2	> 0.1	< 1.9	0.06 to 0.1	–
N#CC1CCN(C(=O)[C@@]2(N)CCN(c3ccc(F)c(C(F)(F)F)c3Cn3cnc4c(N)ncnc43)C2)C1 (stereo partly shown) [Example 141]	< 2	–	< 1.9	< 0.06	< 0.05
Nc1ncnc2c1ncn2Cc1c(Br)ccc(Cl)c1N1CC[C@@](N)(C(=O)O)C1 [Example 142]	> 3	–	< 1.9	< 0.06	< 0.05
Nc1ncnc2c1ncn2Cc1c(Br)c(Cl)cc(Cl)c1N1CC[C@](N)(C(=O)NC2CC2)C1 [Example 143]	< 2	–	< 1.9	< 0.06	< 0.05
Nc1ncnc2c1ncn2Cc1c(N2CC[C@](N)(C(=O)NC3CC3)C2)ccc(Cl)c1Cl [Example 144]	< 2	–	< 1.9	< 0.06	< 0.05
CCc1c(Cl)ccc(N2CC[C@](N)(C(=O)NCCS(=O)(=O)c3ccccc3)C2)c1Cn1cnc2c(N)ncnc21 [Example 145]	< 2	–	< 1.9	< 0.06	< 0.05
Nc1ncnc2c1ncn2Cc1c(N2CC[C@](N)(C(=O)NC3CC3)C2)ccc(Br)c1C(F)(F)F [Example 146]	< 2	–	< 1.9	< 0.06	< 0.05
Nc1ncnc2c1ncn2Cc1c(N2CC[C@](N)(C(=O)NC3CC3)C2)ccc(OC(F)(F)F)c1Br [Example 147]	< 2	–	< 1.9	< 0.06	< 0.05
NC(=O)[C@@]1(N)CCN(c2cc(Cl)cc(Br)c2Cn2cnc3c(N)ncnc32)C1 [Example 148]	< 2	–	< 1.9	< 0.06	< 0.05
CCc1c(Cl)ccc(N2CC[C@](N)(C(=O)NCCS(=O)(=O)CC)C2)c1Cn1cnc2c(N)ncnc21 [Example 149]	< 2	–	< 1.9	< 0.06	< 0.05
Nc1ncnc2c1ncn2Cc1c(-c2cccc3c2CCCC3)cc(Cl)cc1N1CC[C@](N)(C(=O)NC2CC2)C1 [Example 150]	< 2	–	1.9 to 3	< 0.06	< 0.05
CCc1cc(Cl)cc(N2CC[C@](N)(C(=O)N3CCS(=O)(=O)CC3)C2)c1Cn1cnc2c(N)ncnc21 [Example 151]	< 2	–	< 1.9	< 0.06	> 0.1
Nc1ncnc2c1ncn2Cc1c(Cl)c(Cl)cc(F)c1N1CCC(N)(C(=O)NC2CC2)C1 (stereo not shown) [Example 152]	< 2	–	< 1.9	< 0.06	> 0.1
CCc1c(Cl)ccc(N2CC[C@](N)(C(=O)NC3CCS(=O)(=O)CC3)C2)c1Cn1cnc2c(N)ncnc21 [Example 153]	< 2	–	< 1.9	0.06 to 0.1	< 0.05
CCc1ccc(Cl)c(N2CC[C@](N)(C(=O)NC3CC3)C2)c1Cn1cnc2c(N)ncnc21 [Example 154]	< 2	–	< 1.9	> 0.1	< 0.05
CCc1c(Cl)ccc(N2CC[C@](N)(C(=O)N3CCS(=O)(=O)CC3)C2)c1Cn1cnc2c(N)ncnc21 [Example 155]	< 2	–	< 1.9	> 0.1	> 0.1
CCOC(=O)[C@@]1(N)CCN(c2cc(Cl)cc(Br)c2Cn2cnc3c(N)ncnc32)C1 [Example 170]	< 2	–	< 1.9	< 0.06	0.05 to 0.1

— patent US20220380371A1, “MLL1 INHIBITORS AND ANTI-CANCER AGENTS” (NOVARTIS AG, priority 2019, published 2022)
